Measured values from patent US20250154195A1, “NOVEL BETULIN DERIVATIVES, AND THEIR MANUFACTURING METHOD AND USE AS SURFACTANT” (priority 2022, published 2025).
Where two headings read alike, the source gives them in different places.

Experiments:
[1] = Critical micelle concentration (CMC) in water by the stalagmometric method (surface tension vs. concentration); assay type: physicochemical
Procedure: (§1) CMC of mono and di-hydrophilic moiety derivatized betulin derivatives were determined according to the stalagmometric method, which is one of the most common methods for measuring surface tension. Samples were prepared at different concentration of mono and di-hydrophilic moiety derivatized betulin derivatives. The surface tension of samples was calculated from the number of drops obtained by stalagmometer. CMC was calculated by plotting surface tensions vs. concentrations of sample.
CMCs of mono-glycosylated betulin, di-glycosylated betulin, mono-(poly) ethoxylated-carbonated betulin and di-(poly) ethoxylated betulin were determined in water, respectively. Surface tensions of samples obtained in above examples were determined at different concentrations according to the stalagmometric method.
as §1, with “mono-hydrophilic” for “mono and di-hydrophilic”
CMCs of two mono-hydrophilic functionalized betulin at C28-hydroxy and C3-hydroxy group were determined in water, respectively. Surface tensions of samples obtained in above examples were determined at different concentrations according to the stalagmometric method. And CMC was obtained as 0.6 mM (Betulin-carbonate-polyether (PEA) from Example 10), and 0.5 mM (Betulin-carbonate-polyether (PEG) from Example 11), respectively, by plotting surface tensions vs. concentrations of sample.

[2] = non-ionic surfactants, literature values; cited from earlier work

Compound	CMC [1] [mM]	CMC [2] [mM]
C=C(C)[C@@H]1CC[C@]2(COC3OC(CO)C(O)C(O)C3O)CC[C@]3(C)C(CCC4[C@@]5(C)CC[C@H](OC6OC(CO)C(O)C(O)C6O)C(C)(C)C5CC[C@]43C)C12 (some centres unmarked) [di-glycosylated betulin, diglucose-betulin]	1.0	
C=C(C)[C@@H]1CC[C@]2(COC3OC(CO)C(O)C(O)C3O)CC[C@]3(C)C(CCC4[C@@]5(C)CC[C@H](O)C(C)(C)C5CC[C@]43C)C12 (some centres unmarked) [mono-glycosylated betulin, glucose-betulin]	0.8	
Betulin-carbonate-polyether (PEA)	0.6	
Betulin-carbonate-polyether (PEG)	0.5	
Brij 35		0.1
Triton X-100		0.2
fructose oleate		0.4
sucrose monolaurate		0.45
